The source of these data is PubChem BioAssay AID789 (SRMLSC, 2007).

The term IC50 denotes the midpoint of a concentration-inhibition curve.

Calls of active or inactive are those of the source. The rule behind the calls is not given here.

A short description of test [1]: growth inhibition of apl2Δ yeast, dose response, selectivity assay for post-Golgi transport modulator project, S. cerevisiae, secondary screen, background strain comparison (AID 789). To be noted: S. cerevisiae background (wild-type parent) strain growth inhibition.
Test [2] concerns S. cerevisiae apl2Δ mutant growth inhibition. The test is described as above.

As for `COc1ccc(C2=NC(C(F)(F)F)(C(F)(F)F)c3c(n(C)c(=O)n(C)c3=O)N2)cc1`, the IC50 in test [1] is > 10 µM; in test [2], > 10 µM (inactive).

As for `CC(C)(C)n1nnnc1CN(Cc1cccnc1)Cc1ccccc1Cl`, the concentration for half-maximal inhibition (IC50) in test [1] is > 10 µM; in test [2], > 10 µM (inactive).

Take `CCOC(=O)c1c(NC(=O)CN2CCCCC2)sc2c1CCC(C=O)=C2Cl`: the IC50 in test [1] was > 10 µM; in test [2], > 10 µM (inactive).

Take `Cc1c(Cc2ccccc2)c(=O)oc2c(C)c(OCc3nn[nH]n3)ccc12`: the IC50 was > 10 µM in test [1] and > 10 µM (inactive) in test [2].

Turning to `O=C(Cn1nnc(-c2ccc(S(=O)(=O)N3CCCC3)cc2)n1)NCC1CCCO1` (configuration not stated), the results for the IC50 in test [1] and in test [2] were > 10 µM and > 10 µM (inactive), respectively.

For the molecule `Cc1cc(C)c2c(c1)/C(=C/C(=O)c1ccc(Br)s1)C(=O)N2`, the IC50 in test [1] was 1.42 µM; in test [2] it was 1.55 µM (inactive).

For `COc1cc(CN2CCN(c3ccc(C)cc3)CC2)cc([N+](=O)[O-])c1O`, the IC50 in test [1] was > 10 µM; in test [2], > 10 µM (inactive).

Turning to `O=C(Cn1ncc2c3ccccc3n(Cc3ccccc3F)c2c1=O)N1CCC2(CC1)OCCO2`, the results for the IC50 in test [1] and in test [2] were > 10 µM and > 10 µM (inactive), respectively.

As for `O=C(O)c1cc(-c2ccc(/C=N/Nc3ccc(Cl)cc3)o2)ccc1Cl`, the IC50 in test [1] was 16.4 µM; in test [2] it was 15.5 µM.

As for `CC(C)Oc1ccc(/C(O)=C2/C(=O)C(=O)N(CCN(C)C)C2c2ccco2)cc1` (configuration not stated), the IC50 in test [1] was > 10 µM; in test [2], > 10 µM (inactive).

Turning to `Cn1nnc2cc(C(=O)Nc3cccnc3)ccc21`, the values for the IC50 in test [1] and in test [2] were > 10 µM and > 10 µM (inactive), respectively.

`C/C(=N\N=C(/N)SC1CC(=O)N(c2ccc(Cl)c(Cl)c2)C1=O)c1cccs1` (configuration not stated): the IC50 in test [1] was 5.98 µM; in test [2], > 10 µM (inactive).

Take `Nc1c(C(=O)OCC2CCCO2)c2nc3ccccc3nc2n1-c1ccc2c(c1)OCCO2` (configuration not stated): the figures for the IC50 in test [1] and in test [2] were > 10 µM and > 10 µM (inactive), respectively.

With `O=C(NCCSCc1ccc(Cl)cc1Cl)c1ccc(CN2CCOCC2)cc1`, the IC50 is > 10 µM in test [1] and > 10 µM (inactive) in test [2].

As for `COc1ccc(CN(C(=O)Cc2cccs2)C(C(=O)NC2CCCC2)c2ccncc2)cc1` (configuration not stated), the IC50 was > 10 µM in test [1] and > 10 µM (inactive) in test [2].

As for `Cc1cc2ncn(CC(O)COc3cccc(C(=O)O)c3)c2cc1C` (configuration not stated), the values for the IC50 in test [1] and in test [2] were > 10 µM and > 10 µM (inactive), respectively.

As for `COc1ccc2nc(NCCCNC(=O)c3cc(OC)c(OC)c(OC)c3)c(C#N)cc2c1`, the values for the IC50 in test [1] and in test [2] were > 10 µM and > 10 µM (inactive), respectively.

In the case of `O=C(O)Cn1c(SCCOc2ccccc2F)nc2ccccc21`, the figures for the IC50 in test [1] and in test [2] were > 10 µM and > 10 µM (inactive), respectively.

As for `CCOC(=O)C(NC(C)=O)(Nc1ccc(S(=O)(=O)Nc2onc(C)c2C)cc1)C(F)(F)F` (configuration not stated), the IC50 in test [1] was > 10 µM; in test [2], > 10 µM (inactive).

`Cc1ccc(C)c(C(=O)NCc2ccncc2)c1`: the concentration for half-maximal inhibition (IC50) in test [1] was > 10 µM; in test [2] it was > 10 µM (inactive).

For the molecule `Cc1nc(NC(=O)c2ccccc2)sc1-c1csc(Nc2ccc(F)cc2)n1`, the IC50 is > 10 µM in test [1] and > 10 µM (inactive) in test [2].

Turning to `CCn1c(=O)[nH]c2cc(C(=O)N3CCN(c4ccccc4)CC3)ccc2c1=O`, the IC50 in test [1] was > 10 µM; in test [2], > 10 µM (inactive).

For `CC(NC(=O)CSc1nc2c(cc1C#N)CN(C)CC2)c1ccccc1` (configuration not stated), the IC50 in test [1] is > 10 µM; in test [2], > 10 µM (inactive).

For `c1ccc2c(c1)oc1c(Nc3ccc(CN4CCOCC4)cc3)ncnc12`, the IC50 in test [1] is > 10 µM; in test [2] it was > 10 µM (inactive).

Take `COc1cccc(OCCCCN2CC(C)OC(C)C2)c1` (configuration not stated): the IC50 is > 10 µM in test [1] and > 10 µM (inactive) in test [2].

Turning to `CC(C)OC(=O)CSc1nnc(-c2ccc(Cl)cc2)n1N`, the IC50 in test [1] is > 10 µM; in test [2] it was > 10 µM (inactive).

As for `Cc1ccc(C(=O)c2c(NC(=O)c3ccncc3)sc3c2CCCC3)cc1`, the IC50 in test [1] is > 10 µM; in test [2] it was > 10 µM (inactive).

Turning to `COc1ccccc1N1CCN(CC(O)c2ccc3cc[nH]c3c2)CC1` (configuration not stated), the IC50 in test [1] is > 10 µM; in test [2], > 10 µM (inactive).

Regarding `c1coc(CNc2nc(N3CCCCC3)nc3ccccc23)c1`, the IC50 was > 10 µM in test [1] and > 10 µM (inactive) in test [2].

As to `CCN(CC)C(=O)C1CCN(Cc2ccc(Br)cc2)CC1`, the IC50 in test [1] is > 10 µM; in test [2], > 10 µM (inactive).

For the molecule `Cc1ccc(CSc2nc3ccccc3cc2C=O)cc1`, the IC50 in test [1] was 2.1 µM; in test [2], 7.24 µM (inactive).

With `COc1ccc(/C=C2\SC(=S)N(NC(=O)c3csc4c3CCCC4)C2=O)cc1`, the half-inhibitory concentration (IC50) in test [1] is > 10 µM; in test [2], > 10 µM (inactive).

For the molecule `O=C(NCC(c1cccnc1)N1CCN(c2ccccc2)CC1)C1CCCCC1` (configuration not stated), the IC50 was > 10 µM in test [1] and > 10 µM (inactive) in test [2].

`O=C(NCC(=O)N(c1cccnc1)C(C(=O)NCc1ccco1)c1ccccc1)c1ccco1` (configuration not stated): the results for the IC50 in test [1] and in test [2] were > 10 µM and > 10 µM (inactive), respectively.

In the case of `O=[N+]([O-])c1ccc(N2CCN(S(=O)(=O)c3ccc(Cl)cc3)CC2)cc1NCc1cccnc1`, the values for the IC50 in test [1] and in test [2] were > 10 µM and > 10 µM (inactive), respectively.

In the case of `Cc1cc(=O)oc2c(CN3CCCCC3)c(O)c(Cl)cc12`, the IC50 was > 10 µM in test [1] and > 10 µM (inactive) in test [2].

For the molecule `Cc1cc(Cl)cc(C)c1OCCCCN1CCOCC1`, the IC50 was > 10 µM in test [1] and > 10 µM (inactive) in test [2].

Take `O=C(Nc1nnc(-c2ccc(Cl)cc2)o1)c1ccccc1Br`: the IC50 is 13.1 µM in test [1] and > 10 µM (inactive) in test [2].

`O=C1CN(C(=O)CSc2nnc(-c3ccccc3)n2Cc2ccc3c(c2)OCO3)c2ccccc2N1`: the IC50 in test [1] was > 10 µM; in test [2] it was > 10 µM (inactive).

In the case of `CCCCOc1ccc(-c2ncc(C(=O)O)c(C)n2)cc1`, the IC50 in test [1] was > 10 µM; in test [2], > 10 µM (inactive).

Consider `CCCCC1(CCCC)C(=O)NC(=Nc2cccc(C)c2)NC1=O`, for which the IC50 is > 10 µM in test [1] and > 10 µM (inactive) in test [2].

Turning to `CC1=CC(C)(C)Nc2ccc(OC(=O)CN3C(=O)c4cccc5cccc(c45)C3=O)cc21`, the values for the half-inhibitory concentration (IC50) in test [1] and in test [2] were > 10 µM and > 10 µM (inactive), respectively.

`N#Cc1nc(COc2ccc(-c3ccccc3)cc2)oc1NCCCN1CCOCC1`: the half-maximal inhibitory concentration (IC50) in test [1] was 15.4 µM; in test [2], 17.2 µM (inactive).

With `c1ccc(-c2ccc(-c3cnc4n3CCCCC4)cc2)cc1`, the figures for the IC50 in test [1] and in test [2] were > 10 µM and > 10 µM (inactive), respectively.

Regarding `COc1ccc(C(=O)c2c(C(F)(F)F)oc3c2C(=O)c2ccccc2C3=O)cc1`, the IC50 in test [1] is 2.32 µM; in test [2] it was > 10 µM (inactive).

With `Cc1cccnc1Nc1nc(-c2ccccn2)cs1`, the IC50 in test [1] is > 10 µM; in test [2], > 10 µM (inactive).

Consider `FC(F)(F)COc1nc(N2CCCCC2)nc(N2CCNCC2)n1`, for which the values for the IC50 in test [1] and in test [2] were > 10 µM and > 10 µM (inactive), respectively.

As to `COc1ccccc1N1CCN(Cc2ccccc2F)CC1`, the values for the IC50 in test [1] and in test [2] were > 10 µM and > 10 µM (inactive), respectively.

As to `CS(=O)(=O)N1CCC(C(=O)NCCN2CCN(Cc3ccccc3)CC2)CC1`, the IC50 in test [1] was > 10 µM; in test [2], > 10 µM (inactive).

Consider `Cc1ccc(C2(C(F)(F)F)N=C3Sc4cc(C)cc(C)c4N3C(=O)N2)cc1` (configuration not stated), for which the concentration for half-maximal inhibition (IC50) in test [1] was 1.08 µM; in test [2] it was 1.73 µM (inactive).

For the molecule `Cc1ccc(C(=O)OCn2ncc(Cl)c(Cl)c2=O)cc1`, the IC50 in test [1] was 4.62 µM; in test [2] it was > 10 µM (inactive).

As for `ON=Cc1cccn1-c1ccccc1`, the IC50 in test [1] was > 10 µM; in test [2], > 10 µM (inactive).

Regarding `CCN(CC)c1ccc(-c2nc3cnccc3n2C)cc1`, the IC50 in test [1] was > 10 µM; in test [2] it was > 10 µM (inactive).

As for `O=C(c1ccco1)N1CCN(c2ncnc3c2[nH]c2ccccc23)CC1`, the IC50 is > 10 µM in test [1] and > 10 µM (inactive) in test [2].

Regarding `COc1ccc(C2C3=C(CCCC3=O)Nc3nc(-c4cc(OC)c(OC)c(OC)c4)nn32)cc1OC` (configuration not stated), the IC50 in test [1] is > 10 µM; in test [2], > 10 µM (inactive).

On to `CCC(C)c1ccc(OCCCCN2CCOCC2)cc1` (configuration not stated), for which the half-inhibitory concentration (IC50) in test [1] was > 10 µM; in test [2], 24 µM.

As to `Nc1cc(N)c(OCC(F)(F)F)cc1OCC(F)(F)F`, the values for the 50% inhibitory concentration (IC50) in test [1] and in test [2] were > 10 µM and > 10 µM (inactive), respectively.

As for `OC(COCc1ccc(Cl)cc1)CN1CC=C(c2ccccc2)CC1` (configuration not stated), the IC50 in test [1] is 20.8 µM; in test [2], 8.58 µM.

Take `CCc1n[nH]c2c1/C(=N\O)CC(C)(C)C2`: the values for the IC50 in test [1] and in test [2] were > 10 µM and > 10 µM (inactive), respectively.

Consider `COc1cccc(NC(=O)C2CCCN2C(=O)OCc2ccccc2)c1` (configuration not stated), for which the IC50 is > 10 µM in test [1] and > 10 µM (inactive) in test [2].

For the molecule `COc1ccc(NC(=O)c2ccc(CN3CCN(c4ccccc4)CC3)cc2)cc1`, the figures for the IC50 in test [1] and in test [2] were > 10 µM and > 10 µM (inactive), respectively.

Turning to `CC(C)COC(=O)c1ccc2c(c1O)C(=O)c1ccccc1C2=O`, the IC50 in test [1] was > 10 µM; in test [2], > 10 µM (inactive).

For the molecule `O=C(NCCc1ccccc1)C1CCN(S(=O)(=O)N2CCCC2)CC1`, the IC50 in test [1] is > 10 µM; in test [2], > 10 µM (inactive).

`Cc1cccc(OCC(=O)O/N=C(\N)Cc2ccc(Cl)cc2)c1`: the IC50 was 10.4 µM in test [1] and > 10 µM (inactive) in test [2].

On to `O=C(Nc1cccc(Cl)c1)N1CCN(C/C=C/c2ccccc2)CC1`, for which the IC50 in test [1] is > 10 µM; in test [2], > 10 µM (inactive).

As for `CCOC(=O)c1ccc(NC(=O)c2ccc(CN3CCOCC3)cc2)cc1`, the IC50 in test [1] is > 10 µM; in test [2] it was > 10 µM (inactive).
